Results reported in ChEMBL document CHEMBL4342519, “Triazolo-Peptidomimetics: Novel Radiolabeled Minigastrin Analogs for Improved Tumor Targeting” (J Med Chem, 2020).
Active and inactive are the calls of the source. No cut-off for these calls is given here. *1 amine or outer side, *2 acyl side, *3 side chain or, on linkers, in order; H or OH if unused. Where a SMILES comes first, the peptide text is derived from it. [ ]: non-standard residue; d: D form. The star is where a group is joined. X2 = CCCC[C@@H](C(=O)[*:2])n1cc([C@H](Cc2c[nH]c3ccccc23)N[*:1])nn1; X4 = C[C@H](N[*:1])c1cn([C@@H](Cc2ccc(O)cc2)C(=O)[*:2])nn1; DOTA = O=C(O)CN1CCN(CC(=O)O)CCN(CC(=O)*)CCN(CC(=O)O)CC1; X3 = O=C([C@H](Cc1c[nH]c2ccccc12)n1cc(CN[*:1])nn1)[*:2]; X5 = C[C@@H](C(=O)[*:2])n1cc([C@@H](CCC(=O)O)N[*:1])nn1; X1 = O=C(Cn1cc([C@H](Cc2ccc(O)cc2)N[*:1])nn1)[*:2]; Nle = CCCC[C@H](N)C(=O)O

Experiments:
[1] = Stability of compound in human plasma at 7.5 MBq assessed as intact compound measured after 24 hrs using 177Lu labeled compound by gamma-HPLC analysis; assay type: ADME, cell-free; conditions: for remaining at 24 h, 7.5 MBq: read-out: Stability; for Stability: 24 h
[2] = target: T1, Gastrin/cholecystokinin type B receptor (Homo sapiens, UniProt P32239); assay: Displacement of [177Lu] PP-F11N from CCK2R (unknown origin) transfected in A431 cells incubated for 1 hr at 4 degree C followed by compound washout with PBS buffer using Lu3+ labeled compound by Cobra-2 gamma counter method; assay type: cell-based
T1 sequence (P32239 whole entry): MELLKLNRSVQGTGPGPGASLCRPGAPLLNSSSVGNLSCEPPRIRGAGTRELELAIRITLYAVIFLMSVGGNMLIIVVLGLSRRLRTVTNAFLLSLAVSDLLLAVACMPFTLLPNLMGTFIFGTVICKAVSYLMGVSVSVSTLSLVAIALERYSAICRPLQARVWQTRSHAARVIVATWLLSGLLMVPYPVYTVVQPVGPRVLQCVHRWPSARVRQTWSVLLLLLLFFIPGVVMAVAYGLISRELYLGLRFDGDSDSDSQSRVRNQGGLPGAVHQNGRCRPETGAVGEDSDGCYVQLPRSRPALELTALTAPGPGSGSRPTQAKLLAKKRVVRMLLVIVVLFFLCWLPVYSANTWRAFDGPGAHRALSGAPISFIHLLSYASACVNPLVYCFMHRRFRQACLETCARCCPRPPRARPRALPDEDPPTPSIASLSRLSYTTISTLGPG

[3] = Ratio of half life of compound to [Nle15]MG11 in human plasma at 7.5 MBq measured up to 24 hrs at 37 degree C using 177Lu labeled compound by gamma-HPLC analysis; assay type: ADME, cell-free
[4] = Drug uptake in tumor of CD1 nu/nu mouse xenografted with human A431 cells transfected with CCK2R at 0.5 MBq after 4 hrs using 177Lu labeled compound by Cobra-2 gamma counter method relative to control; assay type: ADME, tissue-based, Neoplasm
[5] = Half life in human plasma at 7.5 MBq measured up to 24 hrs at 37 degree C using 177Lu labeled compound by gamma-HPLC analysis; assay type: ADME, cell-free
[6] = target: T2, Gastrin/cholecystokinin type B receptor (Homo sapiens) (UniProt P32239); assay: Binding affinity to CCK2R (unknown origin) expressed in human A431 cells assessed as receptor-mediated drug internalization at 5 kBq incubated 4 hrs using 177Lu labeled compound by gamma counting method relative to control; assay type: cell-based
T2 sequence (whole entry): T1 sequence (P32239 whole entry)

[7] = target: T2, Gastrin/cholecystokinin type B receptor (Homo sapiens); assay: Binding affinity to CCK2R (unknown origin) expressed in human A431 cells assessed as receptor-mediated drug internalization at 5 kBq incubated up to 240 mins using 177Lu labeled compound by gamma counting method relative to control; assay type: cell-based
[8] = Lipophilicity, log D of compound in PBS buffer at 0.25 MBq and pH 7.4 using 177Lu labeled compound by shake-flask method; assay type: physicochemical
[9] = target: T2, Gastrin/cholecystokinin type B receptor (Homo sapiens); assay: Potency index, ratio of [Nle15]MG11 IC50 to test compound IC50 for displacement of [177Lu] PP-F11N from CCK2R (unknown origin) transfected in A431 cells incubated for 1 hr at 4 degree C followed by compound washout with PBS buffer using Lu3+ labeled compound by Cobra-2 gamma counter method; assay type: cell-based
[10] = Drug uptake in tumor of CD1 nu/nu mouse xenografted with human A431 cells transfected with CCK2R at 0.5 MBq after 1 hr using 177Lu labeled compound by Cobra-2 gamma counter method; assay type: ADME, tissue-based, Neoplasm
[11] = Drug uptake in tumor of CD1 nu/nu mouse xenografted with human A431 cells transfected with CCK2R at 0.5 MBq after 24 hrs using 177Lu labeled compound by Cobra-2 gamma counter method relative to control; assay type: ADME, tissue-based, Neoplasm
[12] = Ratio of drug uptake in tumor to kidney in CD1 nu/nu mouse xenografted with human A431 cells transfected with CCK2R at 0.5 MBq after 4 hrs using 177Lu labeled compound by Cobra-2 gamma counter method; assay type: ADME, tissue-based
[13] = Drug recovery in tumor of CD1 nu/nu mouse xenografted with human A431 cells transfected with CCK2R at 0.5 MBq after 24 hrs using 177Lu labeled compound by Cobra-2 gamma counter method relative to control; assay type: ADME, tissue-based, Neoplasm
[14] = target: T2, Gastrin/cholecystokinin type B receptor (Homo sapiens); assay: Binding affinity to CCK2R (unknown origin) expressed in human A431 cells assessed as receptor-mediated drug internalization at 5 kBq incubated 2 to 4 hrs using 177Lu labeled compound by gamma counting method relative to control; assay type: cell-based
[15] = Drug uptake in tumor of CD1 nu/nu mouse xenografted with human A431 cells transfected with CCK2R at 0.5 MBq, iv after 4 hrs using 177Lu labeled compound by Cobra-2 gamma counter method relative to [Nle15]MG11; assay type: ADME, organism-based, Neoplasm; conditions: in vivo

## CCCC[C@@H](C(=O)N[C@@H](CC(=O)O)C(=O)N[C@@H](Cc1ccccc1)C(N)=O)n1cc([C@H](Cc2c[nH]c3ccccc23)NC(=O)CNC(=O)[C@H](Cc2ccc(O)cc2)NC(=O)[C@H](C)NC(=O)[C@@H](CCC(=O)O)NC(=O)CN2CCN(CC(=O)O)CCN(CC(=O)O)CCN(CC(=O)O)CC2)nn1 ({DOTA}-[dE]AYG[X2]DF-NH2)
[1]
  remaining at 24 h, 7.5 MBq: > 50%
[2]
  IC50: 25.4 nM
[3]
  Ratio: 90
[4]
  Drug uptake: Active
[5]
  half-life at 7.5 MBq: 350 h
[6]
  Drug uptake: Active
[7]
  Drug uptake: 33.1%
[8]; PBS buffer, read-out: logD
  logD: -3.98

## CCCC[C@H](NC(=O)[C@H](Cc1c[nH]c2ccccc12)NC(=O)CNC(=O)C[C@H](Cc1ccc(O)cc1)NC(=O)[C@H](C)NC(=O)[C@@H](CCC(=O)O)NC(=O)CN1CCN(CC(=O)O)CCN(CC(=O)O)CCN(CC(=O)O)CC1)C(=O)N[C@@H](CC(=O)O)C(=O)N[C@@H](Cc1ccccc1)C(N)=O
[2]
  IC50: 25.8 nM
[5]
  half-life at 7.5 MBq: 4.7 h
[7]
  Drug uptake: 37.4%
[8]; PBS buffer, read-out: logD
  logD: -3.83

## CCCC[C@H](NC(=O)[C@H](Cc1c[nH]c2ccccc12)NC(=O)CNC(=O)[C@H](Cc1ccc(O)cc1)NC(=O)[C@H](C)n1cc([C@@H](CCC(=O)O)NC(=O)CN2CCN(CC(=O)O)CCN(CC(=O)O)CCN(CC(=O)O)CC2)nn1)C(=O)N[C@@H](CC(=O)O)C(=O)N[C@@H](Cc1ccccc1)C(N)=O ({DOTA}-[X5]YGW[Nle]DF-NH2)
[9]
  Ratio IC50: 2
[2]
  IC50: 8 nM
[4]
  Drug uptake: Active
[5]
  half-life at 7.5 MBq: 7.7 h
[6]
  Drug uptake: Active
[7]
  Drug uptake: 39.6%
[8]; PBS buffer, read-out: logD
  logD: -3.98

## CCCC[C@H](NC(=O)[C@H](Cc1c[nH]c2ccccc12)NC(=O)CNC(=O)[C@H](Cc1ccc(O)cc1)NC(=O)[C@H](C)NC(=O)[C@@H](CCC(=O)O)NC(=O)CN1CCN(CC(=O)O)CCN(CC(=O)O)CCN(CC(=O)O)CC1)C(=O)N[C@@H](CC(=O)O)c1cn([C@@H](Cc2ccccc2)C(N)=O)nn1
[1]
  remaining at 24 h, 7.5 MBq: > 50%
[2]
  IC50: > 50000 nM
[5]
  half-life at 7.5 MBq: 35.9 h
[7]
  Drug uptake: 0.1%
[8]; PBS buffer, read-out: logD
  logD: -3.95

## CCCC[C@H](NC(=O)[C@H](Cc1c[nH]c2ccccc12)NC(=O)CCNC(=O)[C@H](Cc1ccc(O)cc1)NC(=O)[C@H](C)NC(=O)[C@@H](CCC(=O)O)NC(=O)CN1CCN(CC(=O)O)CCN(CC(=O)O)CCN(CC(=O)O)CC1)C(=O)N[C@@H](CC(=O)O)C(=O)N[C@@H](Cc1ccccc1)C(N)=O
[2]
  IC50: 18.8 nM
[5]
  half-life at 7.5 MBq: 8.5 h
[7]
  Drug uptake: 44.5%
[8]; PBS buffer, read-out: logD
  logD: -3.73

## CCCC[C@H](NC(=O)[C@H](Cc1c[nH]c2ccccc12)n1cc(CNC(=O)[C@H](Cc2ccc(O)cc2)NC(=O)[C@H](C)NC(=O)[C@@H](CCC(=O)O)NC(=O)CN2CCN(CC(=O)O)CCN(CC(=O)O)CCN(CC(=O)O)CC2)nn1)C(=O)N[C@@H](CC(=O)O)C(=O)N[C@@H](Cc1ccccc1)C(N)=O ({DOTA}-[dE]AY[X3][Nle]DF-NH2)
[1]
  Stability: Unstable
[2]
  IC50: 15.6 nM
[4]
  Drug uptake: Active
[5]
  half-life at 7.5 MBq: 3.8 h
[6]
  Drug uptake: Active
[7]
  Drug uptake: 41.7%
[8]; PBS buffer, read-out: logD
  logD: -4

## CCCC[C@H](NC(=O)[C@H](Cc1c[nH]c2ccccc12)NC(=O)CNC(=O)[C@H](Cc1ccc(O)cc1)NC(=O)[C@H](C)NC(=O)[C@@H](CCC(=O)O)NC(=O)CN1CCN(CC(=O)O)CCN(CC(=O)O)CCN(CC(=O)O)CC1)C(=O)N[C@@H](CC(=O)O)C(=O)N[C@@H](Cc1ccccc1)C(N)=O ({DOTA}-[dE]AYGW[Nle]DF-NH2)
[10]
  Drug uptake: Active
[2]
  IC50: 15.4 nM
[4]
  Drug uptake: 1.48 % ID/g
[5]
  half-life at 7.5 MBq: 3.9 h
[11]
  Drug uptake: < 0.9 % ID/g
[6]
  Drug uptake: 11.7%
[12]
  Ratio: 1.83
[13]
  Drug recovery: 34%
[7]
  Drug uptake: 32.2%
[8]; PBS buffer, read-out: logD
  logD: -3.86

## CCCC[C@H](NC(=O)[C@H](Cc1c[nH]c2ccccc12)NC(=O)Cn1cc([C@H](Cc2ccc(O)cc2)NC(=O)[C@H](C)NC(=O)[C@@H](CCC(=O)O)NC(=O)CN2CCN(CC(=O)O)CCN(CC(=O)O)CCN(CC(=O)O)CC2)nn1)C(=O)N[C@@H](CC(=O)O)C(=O)N[C@@H](Cc1ccccc1)C(N)=O ({DOTA}-[dE]A[X1]W[Nle]DF-NH2)
[10]
  Drug uptake: Active
[9]
  Ratio IC50: 10
[1]
  Stability: Unstable
[2]
  IC50: 1.7 nM
[4]
  Drug uptake: 3.91 % ID/g
[5]
  half-life at 7.5 MBq: 2.6 h
[14]
  fold change (FC): 2
[15]
  Ratio: 2.6
[11]
  Drug uptake: Active
[6]
  Drug uptake: 31%
[12]
  Ratio: 5.81
[13]
  Drug recovery: 75%
[7]
  Drug uptake: 54.3%
[8]; buffer
  logD: -4.06

## CCCC[C@H](NC(=O)[C@H](Cc1c[nH]c2ccccc12)NC(=O)CNC(=O)[C@H](Cc1ccc(O)cc1)NC(=O)[C@H](C)NC(=O)[C@@H](CCC(=O)O)NC(=O)CN1CCN(CC(=O)O)CCN(CC(=O)O)CCN(CC(=O)O)CC1)c1cn([C@@H](CC(=O)O)C(=O)N[C@@H](Cc2ccccc2)C(N)=O)nn1
[1]
  remaining at 24 h, 7.5 MBq: > 50%
[2]
  IC50: > 50000 nM
[4]
  Drug uptake: Active
[5]
  half-life at 7.5 MBq: 114 h
[7]
  Drug uptake: 0.2%
[8]; PBS buffer, read-out: logD
  logD: -3.75

## CCCC[C@H](NC(=O)[C@H](Cc1c[nH]c2ccccc12)NC(=O)CNC(=O)[C@H](Cc1ccc(O)cc1)NC(=O)[C@H](C)NC(=O)[C@@H](CCC(=O)O)NC(=O)CN1CCN(CC(=O)O)CCN(CC(=O)O)CCN(CC(=O)O)CC1)C(=O)N[C@@H](CC(=O)O)C(=O)N[C@@H](Cc1ccccc1)c1c[nH]nn1
[1]
  remaining at 24 h, 7.5 MBq: > 50%
[2]
  IC50: 200 nM
[5]
  half-life at 7.5 MBq: 34.9 h
[7]
  Drug uptake: 2.5%
[8]; PBS buffer, read-out: logD
  logD: -3.69

## CCCC[C@H](NC(=O)[C@H](Cc1c[nH]c2ccccc12)NC(=O)CNC(=O)[C@H](Cc1ccc(O)cc1)n1cc([C@H](C)NC(=O)[C@@H](CCC(=O)O)NC(=O)CN2CCN(CC(=O)O)CCN(CC(=O)O)CCN(CC(=O)O)CC2)nn1)C(=O)N[C@@H](CC(=O)O)C(=O)N[C@@H](Cc1ccccc1)C(N)=O ({DOTA}-[dE][X4]GW[Nle]DF-NH2)
[1]
  remaining at 24 h, 7.5 MBq: > 50%
[2]
  IC50: 20.9 nM
[4]
  Drug uptake: Active
[5]
  half-life at 7.5 MBq: 51.4 h
[6]
  Drug uptake: Active
[7]
  Drug uptake: 29.6%
[8]; PBS buffer, read-out: logD
  logD: -3.9
